Laboratory results taken from paper PMC12211128, “Safety, tolerability, pharmacokinetic and pharmacodynamic effects of the muscarinic M1 positive allosteric modulator VU0467319 for Alzheimer’s disease: a single ascending-dose study in healthy participants” (Alzheimer's Research & Therapy, 2025).

Test system: healthy participants
Assay: N-back sequential letter task
Format: in vivo, human
Conditions: for N-Back 0-back Sensitivity (d’) / N-Back 1-back Sensitivity / N-Back 2-back Sensitivity / N-Back 3-back Sensitivity: mean (SD)
Description: A visually presented N-back sequential letter task was used to assess working memory performance, wherein participants saw a string of consonants (except L, W, and Y), presented in upper case letters, one every 3 s. Four conditions were presented: 0-back, 1-back, 2-back, and 3-back. The main outcome variable of the n-back task was sensitivity (d’) for each of the four conditions, calculated as: d’ = Z (Hit)– Z (False alarms).
Cognitive data: In this exploratory analysis, each outcome variable of the cognitive data was examined in a mixed model analysis of variance with one between-subjects factor of VU319 dose (0, 60, 120, 240, 400, 600 mg) and a within-subjects factor of testing session (pre-dose vs. post-dost administration). Post-hoc analysis compared each of the VU319 dose cohorts against the placebo group. Because the participants were healthy adults with normal cognitive function, we considered effects between no reductions in function to small improvement (d = 0.0–0.20) to be a positive result. For the food effect study, only the participants who received VU319 were examined due to the disproportionately small placebo group (n = 2). A within-subjects ANOVA including food condition (fasted/fed) and testing session (pre-dose vs. post-dose administration) was performed on each outcome variable.
A visually presented N-back sequential letter task (Jonides et al., 1997; Saykin et al., 2004) was used to assess working memory performance, wherein participants saw a string of consonants (except L, W, and Y), presented in upper case letters, one every 3 s. Four conditions were presented: 0-back, 1-back, 2-back, and 3-back. The 0-back control condition required participants to decide if the current letter matched a single target letter that was specified before the epoch began. In each of the 1-back, 2-back, and 3-back conditions, the task is to decide whether the letter currently presented matches the letter that has been presented 1, 2, or 3 back in the sequence. The 0-, 1-, 2-, and 3-back conditions were performed in two blocks of 27 trials each for a total of 216 trials. The blocks were presented in a counterbalanced order such that the same condition was not repeated two times in a row. The main outcome variable of the n-back task was sensitivity (d’) for each of the four conditions, calculated as: d’ = Z (Hit) – Z (False alarms).

[1] = Food effect study 120 mg, Fasting, Post-Drug
[2] = Food effect study 120 mg, Fasting, Pre-Drug
[3] = Food effect study 120 mg, Fed, Post-Drug
[4] = Food effect study 120 mg, Fed, Pre-Drug

SMILES: Cn1cc2c(-c3cc(F)c(CN4Cc5ncccc5C4=O)c(F)c3)cccc2n1 [VU319]
- N-back 2-back d', vs placebo, effect size d (400 mg, p = 0.12): 0.87
- N-back 1-back d', vs placebo, effect size d (600 mg, p = 0.12): 0.86
- N-Back 0-back Sensitivity (d’) [1]: 5.15 (1.1)
- N-Back 1-back Sensitivity [1]: 3.38 (2.09)
- N-Back 2-back Sensitivity [1]: 2.3 (1.64)
- N-Back 3-back Sensitivity [1]: 1.96 (1.4)
- N-Back 0-back Sensitivity (d’) [2]: 4.64 (1.22)
- N-Back 1-back Sensitivity [2]: 5.01 (0.93)
- N-Back 2-back Sensitivity [2]: 3.79 (1.18)
- N-Back 3-back Sensitivity [2]: 2.55 (1.42)
- N-Back 0-back Sensitivity (d’) [3]: 4.62 (1.32)
- N-Back 1-back Sensitivity [3]: 4.13 (1.6)
- N-Back 2-back Sensitivity [3]: 2.89 (1.42)
- N-Back 3-back Sensitivity [3]: 2.53 (0.97)
- N-Back 0-back Sensitivity (d’) [4]: 4.67 (1.4)
- N-Back 1-back Sensitivity [4]: 5.42 (0.99)
- N-Back 2-back Sensitivity [4]: 3.75 (1.21)
- N-Back 3-back Sensitivity [4]: 2.29 (0.65)
- N-Back 0-back Sensitivity (d’) (SAD study, 60 mg, Post-Drug): 5.37 (1.26)
- N-Back 1-back Sensitivity (SAD study, 60 mg, Post-Drug): 4.99 (1.48)
- N-Back 2-back Sensitivity (SAD study, 60 mg, Post-Drug): 3.12 (1.22)
- N-Back 3-back Sensitivity (SAD study, 60 mg, Post-Drug): 2.11 (0.36)
- N-Back 0-back Sensitivity (d’) (SAD study, 60 mg, Pre-Drug): 5.64 (0.84)
- N-Back 1-back Sensitivity (SAD study, 60 mg, Pre-Drug): 5.01 (1.17)
- N-Back 2-back Sensitivity (SAD study, 60 mg, Pre-Drug): 3.35 (0.91)
- N-Back 3-back Sensitivity (SAD study, 60 mg, Pre-Drug): 2.65 (0.49)
- N-Back 0-back Sensitivity (d’) (SAD study, 120 mg, Post-Drug): 5.37 (1.26)
- N-Back 1-back Sensitivity (SAD study, 120 mg, Post-Drug): 4.46 (1.35)
- N-Back 2-back Sensitivity (SAD study, 120 mg, Post-Drug): 3.25 (2.19)
- N-Back 3-back Sensitivity (SAD study, 120 mg, Post-Drug): 1.75 (1.14)
- N-Back 0-back Sensitivity (d’) (SAD study, 120 mg, Pre-Drug): 5.64 (0.84)
- N-Back 1-back Sensitivity (SAD study, 120 mg, Pre-Drug): 4.91 (1.08)
- N-Back 2-back Sensitivity (SAD study, 120 mg, Pre-Drug): 3.28 (1.98)
- N-Back 3-back Sensitivity (SAD study, 120 mg, Pre-Drug): 2.34 (1.12)
- N-Back 0-back Sensitivity (d’) (SAD study, 240 mg, Post-Drug): 6.18 (0)
- N-Back 1-back Sensitivity (SAD study, 240 mg, Post-Drug): 4.32 (2.3)
- N-Back 2-back Sensitivity (SAD study, 240 mg, Post-Drug): 3.42 (2.29)
- N-Back 3-back Sensitivity (SAD study, 240 mg, Post-Drug): 1.66 (0.83)
- N-Back 0-back Sensitivity (d’) (SAD study, 240 mg, Pre-Drug): 6.18 (0)
- N-Back 1-back Sensitivity (SAD study, 240 mg, Pre-Drug): 4.72 (2.02)
- N-Back 2-back Sensitivity (SAD study, 240 mg, Pre-Drug): 3.77 (1.84)
- N-Back 3-back Sensitivity (SAD study, 240 mg, Pre-Drug): 2.37 (0.81)
- N-Back 0-back Sensitivity (d’) (SAD study, 400 mg, Post-Drug): 6.18 (0)
- N-Back 1-back Sensitivity (SAD study, 400 mg, Post-Drug): 5.37 (1.26)
- N-Back 2-back Sensitivity (SAD study, 400 mg, Post-Drug): 3.6 (1.84)
- N-Back 3-back Sensitivity (SAD study, 400 mg, Post-Drug): 2.01 (0.74)
- N-Back 0-back Sensitivity (d’) (SAD study, 400 mg, Pre-Drug): 6.18 (0)
- N-Back 1-back Sensitivity (SAD study, 400 mg, Pre-Drug): 5.64 (0.84)
- N-Back 2-back Sensitivity (SAD study, 400 mg, Pre-Drug): 3.54 (1.69)
- N-Back 3-back Sensitivity (SAD study, 400 mg, Pre-Drug): 2.34 (0.74)
- N-Back 0-back Sensitivity (d’) (SAD study, 600 mg, Post-Drug): 5.27 (1.43)
- N-Back 1-back Sensitivity (SAD study, 600 mg, Post-Drug): 5.09 (1.06)
- N-Back 2-back Sensitivity (SAD study, 600 mg, Post-Drug): 4.43 (1.72)
- N-Back 3-back Sensitivity (SAD study, 600 mg, Post-Drug): 2.94 (1.3)
- N-Back 0-back Sensitivity (d’) (SAD study, 600 mg, Pre-Drug): 5.57 (0.95)
- N-Back 1-back Sensitivity (SAD study, 600 mg, Pre-Drug): 5.07 (0.59)
- N-Back 2-back Sensitivity (SAD study, 600 mg, Pre-Drug): 4.31 (1.69)
- N-Back 3-back Sensitivity (SAD study, 600 mg, Pre-Drug): 3.3 (1.02)
- N-back d' score, effect of dose (SAD study, four conditions, all p > 0.2): did not show a significant effect of dose, nor dose by time
- N-back 2-back sensitivity, effect of time of testing, effect size d (food effect study, 120 mg, p = 0.004, not related to food condition): 2.55
- N-back 1-back sensitivity, effect of time of testing, effect size d (food effect study, 120 mg, p = 0.015, not related to food condition): 2.0
